Measured values as given in the NIST ThermoML archive (doi:10.1021/je700428f).

Assay: xn = mol fraction of the nth substance listed
Conditions: 101 kPa, Liquid; for viscosity: Capillary tube (Ostwald / Ubbelohde) method

CCCCCCCCC [nonane] + COC(C)(C)C
Conditions | mass density [kg/m3] | viscosity [mPa·s]
308.15 K, x2 = 0 | 706.011 | –
308.15 K, x2 = 0.1085 | 706.97 | –
308.15 K, x2 = 0.1722 | 707.6 | –
308.15 K, x2 = 0.3037 | 709.03 | –
308.15 K, x2 = 0.4011 | 710.36 | –
308.15 K, x2 = 0.5008 | 711.93 | –
308.15 K, x2 = 0.6005 | 713.77 | –
308.15 K, x2 = 0.6992 | 715.84 | –
308.15 K, x2 = 0.6998 | – | 0.386
308.15 K, x2 = 0.7975 | – | 0.357
308.15 K, x2 = 0.8005 | 718.35 | –
308.15 K, x2 = 0.8925 | 721.04 | –
313.15 K, x2 = 0 | 702.076 | 0.555
313.15 K, x2 = 0.1006 | – | 0.529
313.15 K, x2 = 0.1085 | 702.96 | –
313.15 K, x2 = 0.1722 | 703.52 | –
313.15 K, x2 = 0.2026 | – | 0.498
313.15 K, x2 = 0.2995 | – | 0.472
313.15 K, x2 = 0.3037 | 704.82 | –
313.15 K, x2 = 0.4011 | 706.05 | –
313.15 K, x2 = 0.4045 | – | 0.446
313.15 K, x2 = 0.5003 | – | 0.421
313.15 K, x2 = 0.5008 | 707.49 | –
313.15 K, x2 = 0.6005 | 709.18 | –
313.15 K, x2 = 0.6035 | – | 0.391
313.15 K, x2 = 0.6992 | 711.09 | –
313.15 K, x2 = 0.6998 | – | 0.367
313.15 K, x2 = 0.8005 | 713.41 | –
313.15 K, x2 = 0.8925 | 715.91 | –
318.15 K, x2 = 0 | 698.124 | 0.522
318.15 K, x2 = 0.1006 | – | 0.498
318.15 K, x2 = 0.1085 | 698.89 | –
318.15 K, x2 = 0.1722 | 699.42 | –
318.15 K, x2 = 0.2026 | – | 0.471
318.15 K, x2 = 0.2995 | – | 0.446
318.15 K, x2 = 0.3037 | 700.6 | –
318.15 K, x2 = 0.4011 | 701.71 | –
318.15 K, x2 = 0.4045 | – | 0.422
318.15 K, x2 = 0.5003 | – | 0.401
318.15 K, x2 = 0.5008 | 703.01 | –
318.15 K, x2 = 0.6005 | 704.56 | –
318.15 K, x2 = 0.6035 | – | 0.372
318.15 K, x2 = 0.6992 | 706.3 | –
318.15 K, x2 = 0.6998 | – | 0.348
318.15 K, x2 = 0.8005 | 708.45 | –
318.15 K, x2 = 0.8925 | 710.72 | –
323.15 K, x2 = 0 | 694.151 | 0.493
323.15 K, x2 = 0.1006 | – | 0.47
323.15 K, x2 = 0.1085 | 694.83 | –
323.15 K, x2 = 0.1722 | 695.3 | –
323.15 K, x2 = 0.2026 | – | 0.446
323.15 K, x2 = 0.2995 | – | 0.423
323.15 K, x2 = 0.3037 | 696.34 | –
323.15 K, x2 = 0.4011 | 697.34 | –
323.15 K, x2 = 0.4045 | – | 0.402
323.15 K, x2 = 0.5003 | – | 0.382
323.15 K, x2 = 0.5008 | 698.51 | –
323.15 K, x2 = 0.6005 | 699.89 | –
323.15 K, x2 = 0.6035 | – | 0.354
323.15 K, x2 = 0.6992 | 701.46 | –
323.15 K, x2 = 0.8005 | 703.35 | –
323.15 K, x2 = 0.8925 | 705.48 | –
328.15 K, x2 = 0 | 690.165 | 0.466
328.15 K, x2 = 0.1006 | – | 0.445
328.15 K, x2 = 0.1085 | 690.74 | –
328.15 K, x2 = 0.1722 | 691.16 | –
328.15 K, x2 = 0.2026 | – | 0.424
328.15 K, x2 = 0.2995 | – | 0.402
328.15 K, x2 = 0.3037 | 692.06 | –
328.15 K, x2 = 0.4011 | 692.94 | –
328.15 K, x2 = 0.4045 | – | 0.383
328.15 K, x2 = 0.5003 | – | 0.364
328.15 K, x2 = 0.5008 | 693.97 | –
328.15 K, x2 = 0.6005 | 695.19 | –
328.15 K, x2 = 0.6992 | 696.59 | –
328.15 K, x2 = 0.8005 | 698.27 | –
333.15 K, x2 = 0 | 686.154 | 0.442
333.15 K, x2 = 0.1006 | – | 0.423
333.15 K, x2 = 0.1085 | 686.64 | –
333.15 K, x2 = 0.1722 | 686.99 | –
333.15 K, x2 = 0.2026 | – | 0.404
333.15 K, x2 = 0.2995 | – | 0.383
333.15 K, x2 = 0.3037 | 687.76 | –
333.15 K, x2 = 0.4011 | 688.5 | –
333.15 K, x2 = 0.4045 | – | 0.365
333.15 K, x2 = 0.5003 | – | 0.347
333.15 K, x2 = 0.5008 | 689.39 | –
333.15 K, x2 = 0.6005 | 690.45 | –
333.15 K, x2 = 0.6992 | 691.66 | –
333.15 K, x2 = 0.8005 | 693.14 | –
338.15 K, x2 = 0 | 682.116 | 0.42
338.15 K, x2 = 0.1006 | – | 0.402
338.15 K, x2 = 0.1085 | 682.52 | –
338.15 K, x2 = 0.1722 | 682.79 | –
338.15 K, x2 = 0.2026 | – | 0.386
338.15 K, x2 = 0.2995 | – | 0.366
338.15 K, x2 = 0.3037 | 683.42 | –
338.15 K, x2 = 0.4011 | 684.02 | –
338.15 K, x2 = 0.4045 | – | 0.348
338.15 K, x2 = 0.5008 | 684.76 | –
338.15 K, x2 = 0.6005 | 685.66 | –
338.15 K, x2 = 0.6992 | 686.68 | –
338.15 K, x2 = 0.8005 | 687.95 | –
343.15 K, x2 = 0 | 678.06 | 0.399
343.15 K, x2 = 0.1006 | – | 0.383
343.15 K, x2 = 0.1085 | 678.37 | –
343.15 K, x2 = 0.1722 | 678.57 | –
343.15 K, x2 = 0.2026 | – | 0.368
343.15 K, x2 = 0.2995 | – | 0.351
343.15 K, x2 = 0.3037 | 679.05 | –
343.15 K, x2 = 0.4011 | 679.52 | –
343.15 K, x2 = 0.5008 | 680.11 | –
343.15 K, x2 = 0.6005 | 680.83 | –
348.15 K, x2 = 0 | 673.979 | 0.38
348.15 K, x2 = 0.1006 | – | 0.366
348.15 K, x2 = 0.1085 | 674.19 | –
348.15 K, x2 = 0.1722 | 674.31 | –
348.15 K, x2 = 0.2026 | – | 0.352
348.15 K, x2 = 0.3037 | 674.64 | –
348.15 K, x2 = 0.4011 | 674.98 | –
353.15 K, x2 = 0 | 669.872 | 0.362
353.15 K, x2 = 0.1006 | – | 0.35
353.15 K, x2 = 0.1085 | 669.95 | –
353.15 K, x2 = 0.1722 | 670.02 | –
353.15 K, x2 = 0.2026 | – | 0.338
353.15 K, x2 = 0.3037 | 670.19 | –
353.15 K, x2 = 0.4011 | 670.38 | –
358.15 K, x2 = 0 | 665.73 | 0.346
358.15 K, x2 = 0.1006 | – | 0.335
358.15 K, x2 = 0.1085 | 665.71 | –
358.15 K, x2 = 0.1722 | 665.7 | –
358.15 K, x2 = 0.3037 | 665.7 | –
358.15 K, x2 = 0.4011 | 665.75 | –
363.15 K, x2 = 0 | 661.557 | –
363.16 K, x2 = 0.1085 | 661.43 | –
363.16 K, x2 = 0.1722 | 661.33 | –
363.16 K, x2 = 0.3037 | 661.17 | –
